Laboratory results: patent US6504058B1 (priority 1997, dated 2003)

What was measured:
[1] = tested on: Erysiphe graminis f. sp. tritici; experiment: Test A: wheat powdery mildew, preventive spray on wheat seedlings, disease rating; format: in vivo, Erysiphe graminis f. sp. tritici (on wheat seedlings); conditions: 200 ppm test suspension sprayed to run-off (equivalent to 500 g/ha) on wheat seedlings; 100 = 100% disease control, 0 = no control; # = significant activity
Procedure, shortened: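 Compounds at 200 ppm (acetone 3%, 250 ppm Trem 014 in water; equivalent to 500 g/ha) sprayed to run-off on wheat seedlings, inoculated with spore dust the following day. Plants held at 20° C. for 7 days, then rated 0–100% disease control relative to untreated controls.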

Puccinia recondita = experiment: Test B: wheat leaf rust, preventive spray on wheat seedlings, disease rating; format: in vivo, Puccinia recondita (on wheat seedlings); conditions: 200 ppm test suspension sprayed to run-off (equivalent to 500 g/ha) on wheat seedlings; 100 = 100% disease control, 0 = no control; # = significant activity
Procedure, shortened: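 Wheat seedlings were sprayed to run-off with 200 ppm suspensions (≈500 g/ha; 3% acetone, 250 ppm Trem 014) and inoculated with Puccinia recondita spores the next day. Plants were held 24 h saturated at 20 °C, then 6 days at 20 °C. Disease control was rated 0-100 relative to untreated controls.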

Pyricularia oryzae = format: in vivo, Pyricularia oryzae (on rice seedlings); conditions: 200 ppm test suspension sprayed to run-off (equivalent to 500 g/ha) on rice seedlings; 100 = 100% disease control, 0 = no control; # = significant activity
Phytophthora infestans = format: in vivo, Phytophthora infestans (on tomato seedlings); conditions: 200 ppm test suspension sprayed to run-off (equivalent to 500 g/ha) on tomato seedlings; 100 = 100% disease control, 0 = no control; # = significant activity
Botrytis cinerea = experiment: Test E: gray mold, preventive spray on cucumber seedlings, disease rating; format: in vivo, Botrytis cinerea (on cucumber seedlings); conditions: 200 ppm test suspension sprayed to run-off (equivalent to 500 g/ha) on cucumber seedlings; 100 = 100% disease control, 0 = no control; # = significant activity
Procedure, shortened: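 Cucumber seedlings sprayed to run-off with 200 ppm suspension (equivalent to 500 g/ha), inoculated next day with B. cinerea spores. Kept 48 h saturated at 20 °C, then 5 days in growth chamber at 20 °C; disease control rated 0–100 relative to controls.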

SMILES	Test A disease control rating (wheat powdery mildew) [1]	Test B disease control rating (wheat leaf rust) (Puccinia recondita)	Test C disease control rating (rice blast) (Pyricularia oryzae)	Test D disease control rating (potato and tomato late blight) (Phytophthora infestans)	Test E disease control rating (gray mold) (Botrytis cinerea)
CC(NC(=O)C1CC(C)(Cl)C1)C(Oc1cc(F)ccc1C#N)c1ccccc1 (stereo not drawn) [compound 33]	0 (a rating of 0 indicates no disease control (relative to the controls))	0 (a rating of 0 indicates no disease control (relative to the controls))	52%	0 (a rating of 0 indicates no disease control (relative to the controls))	0 (a rating of 0 indicates no disease control (relative to the controls))
CC(NC(=O)C1(C)CC(C)(Cl)C1)c1ccc2ccccc2c1 (stereo not drawn) [compound 23]	0 (a rating of 0 indicates no disease control (relative to the controls))	0 (a rating of 0 indicates no disease control (relative to the controls))	97# %	0 (a rating of 0 indicates no disease control (relative to the controls))	0 (a rating of 0 indicates no disease control (relative to the controls))
CC(NC(=O)C1(Cl)CC(Cl)(Cl)C1)c1ccc(Br)cc1 (stereo not drawn) [compound 12]	99%	0 (a rating of 0 indicates no disease control (relative to the controls))	100# (a rating of 100 indicates 100% disease control)	11%	0 (a rating of 0 indicates no disease control (relative to the controls))
CC(COc1cc(F)ccc1Cl)NC(=O)C1(C)CC(C)(Br)C1 (stereo not drawn) [compound 55]	83# %	0 (a rating of 0 indicates no disease control (relative to the controls))	74%	0 (a rating of 0 indicates no disease control (relative to the controls))	0 (a rating of 0 indicates no disease control (relative to the controls))
CC(COc1cc(Cl)ccc1C#N)NC(=O)C1(C)CC(C)(Cl)C1 (stereo not drawn) [compound 46]	63%	28%	91# %	43%	0 (a rating of 0 indicates no disease control (relative to the controls))
COc1cc(Br)ccc1C(C)NC(=O)C1(C)CC(C)(F)C1 (stereo not drawn) [compound 70]	0 (a rating of 0 indicates no disease control (relative to the controls))	0 (a rating of 0 indicates no disease control (relative to the controls))	97# %	20%	19%
CC(COc1cc(Cl)ccc1F)NC(=O)C1(C)CC(C)(Cl)C1 (stereo not drawn) [compound 52]	83# %	0 (a rating of 0 indicates no disease control (relative to the controls))	100# (a rating of 100 indicates 100% disease control)	0 (a rating of 0 indicates no disease control (relative to the controls))	0 (a rating of 0 indicates no disease control (relative to the controls))
CC(COc1cc(F)ccc1C#N)NC(=O)C1(C)CC(C)(Cl)C1 (stereo not drawn) [compound 44]	0 (a rating of 0 indicates no disease control (relative to the controls))	0 (a rating of 0 indicates no disease control (relative to the controls))	94# %	20%	84%
CC(NC(=O)C1(C)CC(C)(Br)C1)c1ccc(Cl)cc1Cl (stereo not drawn) [compound 68]	0 (a rating of 0 indicates no disease control (relative to the controls))	0 (a rating of 0 indicates no disease control (relative to the controls))	97# %	24%	0 (a rating of 0 indicates no disease control (relative to the controls))
CC(NC(=O)C1(C)CC(C)(Cl)C1)c1cccc2ccccc12 (stereo not drawn) [compound 21]	0 (a rating of 0 indicates no disease control (relative to the controls))	0 (a rating of 0 indicates no disease control (relative to the controls))	0 (a rating of 0 indicates no disease control (relative to the controls))	0 (a rating of 0 indicates no disease control (relative to the controls))	0 (a rating of 0 indicates no disease control (relative to the controls))
CC(NC(=O)C1(C)CC(C)(Cl)C1)c1ccc(Cl)cc1Cl (stereo not drawn) [compound 72]	91# %	0 (a rating of 0 indicates no disease control (relative to the controls))	99# %	66%	0 (a rating of 0 indicates no disease control (relative to the controls))
CC(COc1ccc(Cl)cc1C#N)NC(=O)C1(C)CC(C)(Cl)C1 (stereo not drawn) [compound 42]	63%	0 (a rating of 0 indicates no disease control (relative to the controls))	0 (a rating of 0 indicates no disease control (relative to the controls))	43%	19%
CC(COc1cc(Cl)ccc1F)NC(=O)C1(C)CC(C)(Br)C1 (stereo not drawn) [compound 53]	100# (a rating of 100 indicates 100% disease control)	0 (a rating of 0 indicates no disease control (relative to the controls))	100# (a rating of 100 indicates 100% disease control)	0 (a rating of 0 indicates no disease control (relative to the controls))	0 (a rating of 0 indicates no disease control (relative to the controls))
CC(NC(=O)C1(C)CC(Cl)(CCl)C1)c1ccc(Br)cc1 (stereo not drawn) [compound 62]	0 (a rating of 0 indicates no disease control (relative to the controls))	0 (a rating of 0 indicates no disease control (relative to the controls))	97# %	84# %	0 (a rating of 0 indicates no disease control (relative to the controls))
CC(COc1cc(F)ccc1F)NC(=O)C1(C(F)(F)F)CC(C)(Cl)C1 (stereo not drawn) [compound 27]	72%	0 (a rating of 0 indicates no disease control (relative to the controls))	99# %	14%	0 (a rating of 0 indicates no disease control (relative to the controls))
